Assay results: US20250311727A1, “SUBSTITUTED 2-AMINOAZINES AND SALTS THEREOF, AND USE THEREOF AS HERBICIDAL ACTIVE SUBSTANCES” (BAYER AKTIENGESELLSCHAFT, priority 2022, published 2025)

How the values were obtained:
Format in all cases: in vivo
[1] = tested on: Stellaria media; experiment: Pre-emergence herbicide efficacy at 320 g/ha, STEME; settings: scored visually after about 3 weeks vs untreated controls, 100% = plants have died
From the text: (§1) Unwanted plants/weeds: • ABUTH: Abutilon theophrasti • ALOMY: Alopecurus myosuroides • AMARE: Amaranthus retroflexus • DIGSA: Digitaria sanguinalis • ECHCG: Echinochloa crus-galli • KCHSC: Kochia scoparia • LOLRI: Lolium rigidum • MATIN: Matricaria inodora • POAAN: Poa annua • POLCO: Polygonum convolvulus • SETVI: Setaria viridis • STEME: Stellaria media • VERPE: Veronica persica • VIOTR: Viola tricolor A. Post-Emergence Herbicidal Efficacy at 320 g/ha
(§2) Seeds of mono- and dicotyledonous weed plants were placed in plastic pots in sandy loam soil (doubly sown with one species each of mono- or dicotyledonous weed plants per pot) and covered with soil. The compounds of the invention, formulated in the form of wettable powders (WP) or as emulsion concentrates (EC), were then applied to the surface of the covering soil as aqueous suspension or emulsion with addition of 0.5% additive at a water application rate of 600 litres per hectare (converted). After the treatment, the pots were placed in a greenhouse and kept under good growth conditions for the test plants. After about 3 weeks, the efficacy of the preparations was scored visually in comparison with untreated controls as percentages.
(§3) For example, 100% activity=the plants have died, 0% activity=like control plants.
(§4) Tables C1 to C12 below show the effects of selected compounds of the general formula (I) according to Table 1 on various harmful plants and at an application rate corresponding to 320 g/ha, which were obtained by the trial procedure specified above.

[2] = tested on: Abutilon theophrasti; experiment: Post-emergence herbicidal efficacy at 320 g/ha, ABUTH; settings: rated visually after about 3 weeks vs untreated controls, 100% = plants have died
From the text: as §1
(§5) Seeds of mono- and dicotyledonous weed plants were placed in plastic pots in sandy loam soil (doubly sown with in each case one species of mono- or dicotyledonous weed plants per pot), covered with soil and cultivated in a greenhouse under controlled growth conditions. 2 to 3 weeks after sowing, the test plants were treated at the one-leaf stage. The compounds of the invention, formulated in the form of wettable powders (WP) or as emulsion concentrates (EC), were applied to the green parts of the plants as aqueous suspension or emulsion with addition of 0.5% additive at a water application rate equivalent to 600 litres per hectare. After the test plants had been kept in the greenhouse under optimum growth conditions for about 3 weeks, the activity of the preparations was rated visually in comparison to untreated controls.
as §3
(§6) Tables A1 to A10 below show the effects of selected compounds of the general formula (I) according to Table 1 on various harmful plants and at an application rate corresponding to 320 g/ha, which were obtained by the trial procedure specified above.

[3] = tested on: Abutilon theophrasti; experiment: Pre-emergence herbicide efficacy at 320 g/ha, ABUTH; settings: scored visually after about 3 weeks vs untreated controls, 100% = plants have died
From the text: as §1, §2, §3, §4

[4] = tested on: Stellaria media; experiment: Post-emergence herbicidal efficacy at 320 g/ha, STEME; settings: rated visually after about 3 weeks vs untreated controls, 100% = plants have died
From the text: as §1, §5, §3, §6

[5] = tested on: Poa annua; experiment: Pre-emergence herbicide efficacy at 320 g/ha, POAAN; settings: scored visually after about 3 weeks vs untreated controls, 100% = plants have died
From the text: as §1, §2, §3, §4

[6] = tested on: Amaranthus retroflexus; experiment: Post-emergence herbicidal efficacy at 320 g/ha, AMARE; settings: rated visually after about 3 weeks vs untreated controls, 100% = plants have died
From the text: as §1, §5, §3, §6

[7] = tested on: Kochia scoparia; experiment: Pre-emergence herbicide efficacy at 320 g/ha, KCHSC; settings: scored visually after about 3 weeks vs untreated controls, 100% = plants have died
From the text: as §1, §2, §3, §4

[8] = tested on: Digitaria sanguinalis; experiment: Pre-emergence herbicide efficacy at 320 g/ha, DIGSA; settings: scored visually after about 3 weeks vs untreated controls, 100% = plants have died
From the text: as §1, §2, §3, §4

[9] = tested on: Amaranthus retroflexus; experiment: Pre-emergence herbicide efficacy at 320 g/ha, AMARE; settings: scored visually after about 3 weeks vs untreated controls, 100% = plants have died
From the text: as §1, §2, §3, §4

[10] = tested on: Veronica persica; experiment: Pre-emergence herbicide efficacy at 320 g/ha, VERPE; settings: scored visually after about 3 weeks vs untreated controls, 100% = plants have died
From the text: as §1, §2, §3, §4

[11] = tested on: Veronica persica; experiment: Post-emergence herbicidal efficacy at 320 g/ha, VERPE; settings: rated visually after about 3 weeks vs untreated controls, 100% = plants have died
From the text: as §1, §5, §3, §6

[12] = tested on: Kochia scoparia; experiment: Post-emergence herbicidal efficacy at 320 g/ha, KCHSC; settings: rated visually after about 3 weeks vs untreated controls, 100% = plants have died
From the text: as §1, §5, §3, §6

[13] = tested on: Setaria viridis; experiment: Pre-emergence herbicide efficacy at 320 g/ha, SETVI; settings: scored visually after about 3 weeks vs untreated controls, 100% = plants have died
From the text: as §1, §2, §3, §4

[14] = tested on: Echinochloa crus-galli; experiment: Post-emergence herbicidal efficacy at 320 g/ha, ECHCG; settings: rated visually after about 3 weeks vs untreated controls, 100% = plants have died
From the text: as §1, §5, §3, §6

[15] = tested on: Echinochloa crus-galli; experiment: Pre-emergence herbicide efficacy at 320 g/ha, ECHCG; settings: scored visually after about 3 weeks vs untreated controls, 100% = plants have died
From the text: as §1, §2, §3, §4

[16] = tested on: Amaranthus retroflexus; experiment: Post-emergence herbicidal efficacy at 80 g/ha, AMARE; settings: rated visually after about 3 weeks vs untreated controls, 100% = plants have died
From the text: as §1
(§7) Seeds of monocotyledonous and dicotyledonous weeds and crop plants were placed in sandy loam in plastic or organic planting pots, covered with soil and cultivated in a greenhouse under controlled growth conditions. 2 to 3 weeks after sowing, the test plants were treated at the one-leaf stage. The compounds of the invention, formulated in the form of wettable powders (WP) or as emulsion concentrates (EC), were then sprayed onto the green parts of the plants as aqueous suspension or emulsion with addition of 0.5% additive at a water application rate of 600 l/ha (converted). After the test plants had been kept in the greenhouse under optimum growth conditions for about 3 weeks, the activity of the preparations was rated visually in comparison to untreated controls. For example, 100% activity=the plants have died, 0% activity=like control plants.
(§8) Tables B1 to B11 below show the effects of selected compounds of the general formula (I) according to Table 1 on various harmful plants and an application rate corresponding to 80 g/ha, which were obtained by the experimental procedure mentioned above.

[17] = tested on: Kochia scoparia; experiment: Post-emergence herbicidal efficacy at 80 g/ha, KCHSC; settings: rated visually after about 3 weeks vs untreated controls, 100% = plants have died
From the text: as §1, §7, §8

[18] = tested on: Veronica persica; experiment: Post-emergence herbicidal efficacy at 80 g/ha, VERPE; settings: rated visually after about 3 weeks vs untreated controls, 100% = plants have died
From the text: as §1, §7, §8

| Structure (SMILES) | Pre-emergence efficacy at 320 g/ha against STEME in % [1] [%] | Post-emergence efficacy at 320 g/ha against ABUTH in % [2] [%] | Pre-emergence efficacy at 320 g/ha against ABUTH in % [3] [%] | Post-emergence efficacy at 320 g/ha against STEME in % [4] [%] | Pre-emergence efficacy at 320 g/ha against POAAN in % [5] [%] | Post-emergence efficacy at 320 g/ha against AMARE in % [6] [%] | Pre-emergence efficacy at 320 g/ha against KCHSC in % [7] [%] | Pre-emergence efficacy at 320 g/ha against DIGSA in % [8] [%] | Pre-emergence efficacy at 320 g/ha against AMARE in % [9] [%] | Pre-emergence efficacy at 320 g/ha against VERPE in % [10] [%] | Post-emergence efficacy at 320 g/ha against VERPE in % [11] [%] | Post-emergence efficacy at 320 g/ha against KCHSC in % [12] [%] | Pre-emergence efficacy at 320 g/ha against SETVI in % [13] [%] | Post-emergence efficacy at 320 g/ha against ECHCG in % [14] [%] | Pre-emergence efficacy at 320 g/ha against ECHCG in % [15] [%] | Post-emergence efficacy at 80 g/ha against AMARE in % [16] [%] | Post-emergence efficacy at 80 g/ha against KCHSC in % [17] [%] | Post-emergence efficacy at 80 g/ha against VERPE in % [18] [%] |
| --- | --- | --- | --- | --- | --- | --- | --- | --- | --- | --- | --- | --- | --- | --- | --- | --- | --- | --- |
| Fc1cccc(Nc2ncccn2)c1-c1cc(C(F)F)no1 [Example 1-35] | 100 | 100 | 100 | 100 | 100 | 100 | 100 | 90 | 100 | 90 | 100 | 100 | 90 | – | – | – | – | – |
| COc1cnc(Nc2cccc(F)c2-c2cc(C(F)F)no2)nc1 [Example 1-37] | 100 | 100 | 90 | – | 100 | 90 | 90 | 100 | 100 | – | 90 | 90 | 100 | – | – | – | – | – |
| Cc1cccc(Nc2ncc(Cl)cn2)c1-n1cc(C(F)(F)F)cn1 [Example 1-49] | – | 90 | – | 90 | 100 | 90 | – | 90 | 100 | 100 | 90 | – | 100 | 90 | – | – | – | – |
| Cc1cccc(Nc2ncc(F)cn2)c1-n1cc(C(F)(F)F)cn1 [Example 1-50] | 100 | 90 | 100 | 90 | 90 | 90 | – | 90 | 100 | 90 | 90 | – | 100 | 90 | 100 | – | – | – |
| O=C(CCCC(F)(F)F)c1cccnc1Nc1ncc(Cl)cn1 [Example 2-8] | – | – | – | – | – | – | – | – | – | – | – | – | – | – | – | 100 | 90 | 90 |
